The source of these data is patent US20250230193A1, “CYCLIC COMPOUND HAVING SELECTIVE KRAS INHIBITORY EFFECT ON HRAS AND NRAS” (CHUGAI SEIYAKU KABUSHIKI KAISHA, priority 2022, published 2025).

For assay [1], the target named is GDP-bound HRAS wild-type protein (Homo sapiens, UniProt P01112). Nature of the assay: Binding to HRAS by surface plasmon resonance (SPR), Single Cycle Kinetics. To be noted: SPR, GDP-bound HRAS wild-type vs GDP-bound KRAS wild-type. For orientation: In SPR one partner is held on a chip, and binding of the other changes the refractive index at the surface.
For assay [2], the target named is GDP-bound NRAS wild-type protein (Homo sapiens, UniProt P01111). Kind of assay: Binding to NRAS by surface plasmon resonance (SPR), Single Cycle Kinetics. The conditions noted are these: SPR, GDP-bound NRAS wild-type vs GDP-bound KRAS wild-type.
Sequence of GDP-bound NRAS wild-type protein (P01111 whole entry): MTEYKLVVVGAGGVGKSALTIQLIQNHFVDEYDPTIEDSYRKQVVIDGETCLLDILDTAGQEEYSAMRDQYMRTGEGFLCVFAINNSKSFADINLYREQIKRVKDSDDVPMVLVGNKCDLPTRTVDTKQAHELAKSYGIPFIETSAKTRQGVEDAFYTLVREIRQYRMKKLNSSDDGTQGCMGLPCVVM

Sequence of GDP-bound HRAS wild-type protein (P01112 whole entry): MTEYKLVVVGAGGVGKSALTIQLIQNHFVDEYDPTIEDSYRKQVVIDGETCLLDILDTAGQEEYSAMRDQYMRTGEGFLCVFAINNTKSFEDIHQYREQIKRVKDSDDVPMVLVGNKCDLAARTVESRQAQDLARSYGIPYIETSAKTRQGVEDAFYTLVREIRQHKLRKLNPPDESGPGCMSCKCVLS

Consider `CCC[C@H]1C(=O)N[C@@H]([C@@H](C)CC)C(=O)N(C2CC2)CC(=O)N(C)[C@H]2C/C=C\CCN(C2=O)[C@@H](CC2CCCCC2)C(=O)N(C)CC(=O)N[C@@H](CCc2ccc(C(F)(F)F)c(OC)c2)C(=O)N2C[C@H](OCC)C[C@H]2C(=O)N(C)C2(CCC2)C(=O)N(C)[C@@H](C(CC)CC)C(=O)N(C)[C@H](C(=O)N(C)C)CC(=O)N1C` [PP2337], for which the “HRAS/KRAS (ratio of KD value with respect to HRAS to KD value with respect to KRAS)” value in assay [1] was “A (a compound having 10 or more and less than 20 is denoted as A)”. In addition, the “NRAS/KRAS (ratio of KD value with respect to NRAS to KD value with respect to KRAS)” value in assay [2] was “A (a compound having 10 or more and less than 20 is denoted as A)”.
Consider `CCO[C@@H]1C[C@H]2C(=O)N(C)C3(CCC3)C(=O)N(C)[C@@H](C(CC)CC)C(=O)N(C)[C@H](C(=O)N(C)C)CC(=O)N(C)[C@@H](COC)C(=O)N[C@@H]([C@@H](C)CC)C(=O)N(C3CC3)CC(=O)N(C)[C@H]3C/C=C\CCN(C3=O)[C@@H](CC3CCCCC3)C(=O)N(C)CC(=O)N[C@@H](CCc3ccc(C(F)(F)F)c(OC)c3)C(=O)N2C1` [PP2339], for which, in assay [1], the “HRAS/KRAS (ratio of KD value with respect to HRAS to KD value with respect to KRAS)” value is “A (a compound having 10 or more and less than 20 is denoted as A)”. In addition, the “NRAS/KRAS (ratio of KD value with respect to NRAS to KD value with respect to KRAS)” value in assay [2] was “A (a compound having 10 or more and less than 20 is denoted as A)”.
In the case of `CCC[C@H]1C(=O)N[C@@H]([C@@H](C)CC)C(=O)N(C2CC2)CC(=O)N(C)[C@H]2C/C=C\CCN(C2=O)[C@@H](CC2CCCCC2)C(=O)N(C)CC(=O)N[C@@H](CCc2ccc(C(F)(F)F)c(OC)c2)C(=O)N2C[C@H](OCC)C[C@H]2C(=O)N(C)C2(CCC2)C(=O)N(C)[C@@H](C2CCCC2)C(=O)N(C)[C@H](C(=O)N(C)C)CC(=O)N1C` [PP2340], the “HRAS/KRAS (ratio of KD value with respect to HRAS to KD value with respect to KRAS)” value in assay [1] was “B (a compound having 3 or more and less than 10 is denoted as B)”. Also, the “NRAS/KRAS (ratio of KD value with respect to NRAS to KD value with respect to KRAS)” value in assay [2] was “B (a compound having 3 or more and less than 10 is denoted as B)”.
As for `CCC[C@H]1C(=O)N[C@@H]([C@@H](C)CC)C(=O)N2CCC[C@H]2C(=O)N(C)[C@H]2C/C=C\CCN(C2=O)[C@@H](CC2CCCCC2)C(=O)N(C)CC(=O)N[C@@H](CCc2ccc(C(F)(F)F)c(OC)c2)C(=O)N2C[C@H](OCC)C[C@H]2C(=O)N(C)C2(CCC2)C(=O)N(C)[C@@H](C(CC)CC)C(=O)N(C)[C@H](C(=O)N(C)C)CC(=O)N1C` [PP2341], the “HRAS/KRAS (ratio of KD value with respect to HRAS to KD value with respect to KRAS)” value in assay [1] was “A (a compound having 10 or more and less than 20 is denoted as A)”. Besides, the “NRAS/KRAS (ratio of KD value with respect to NRAS to KD value with respect to KRAS)” value in assay [2] is “A (a compound having 10 or more and less than 20 is denoted as A)”.
Regarding `CCOC[C@H]1C(=O)N[C@@H]([C@@H](C)CC)C(=O)N(C2CC2)CC(=O)N(C)[C@H]2C/C=C\CCN(C2=O)[C@@H](CC2CCCCC2)C(=O)N(C)CC(=O)N[C@@H](CCc2ccc(C(F)(F)F)c(OC)c2)C(=O)N2C[C@H](OCC)C[C@H]2C(=O)N(C)C2(CCC2)C(=O)N(C)[C@@H](C2CCCC2)C(=O)N(C)[C@H](C(=O)N(C)C)CC(=O)N1C` [PP2342], in assay [1], the “HRAS/KRAS (ratio of KD value with respect to HRAS to KD value with respect to KRAS)” value was “A (a compound having 10 or more and less than 20 is denoted as A)”. The “NRAS/KRAS (ratio of KD value with respect to NRAS to KD value with respect to KRAS)” value in assay [2] is “A (a compound having 10 or more and less than 20 is denoted as A)”.
`CCC[C@H]1C(=O)N[C@@H]([C@@H](C)CC)C(=O)N2CCC[C@H]2C(=O)N(C)[C@H]2C/C=C\CCN(C2=O)[C@@H](CC2CCCCC2)C(=O)N(C)CC(=O)N[C@@H](CCc2ccc(C(F)(F)F)c(OC)c2)C(=O)N2C[C@H](OCC)C[C@H]2C(=O)N(C)C2(CCC2)C(=O)N(C)[C@@H](C2CCCC2)C(=O)N(C)[C@H](C(=O)N(C)C)CC(=O)N1C` [PP2344]: the “HRAS/KRAS (ratio of KD value with respect to HRAS to KD value with respect to KRAS)” value in assay [1] is “A (a compound having 10 or more and less than 20 is denoted as A)”. Further, the “NRAS/KRAS (ratio of KD value with respect to NRAS to KD value with respect to KRAS)” value in assay [2] was “A (a compound having 10 or more and less than 20 is denoted as A)”.
As for `CCC[C@H]1C(=O)N[C@@H]([C@@H](C)CC)C(=O)N(C)CC(=O)N(C)[C@H]2C/C=C\CCN(C2=O)[C@@H](CC2CCC(F)(F)CC2)C(=O)N(C)CC(=O)N[C@@H](CCc2ccc(C(F)(F)F)c(OC)c2)C(=O)N2C[C@H](OCC)C[C@H]2C(=O)N(C)C2(CCC2)C(=O)N(C)[C@@H](C(CC)CC)C(=O)N(C)[C@H](C(=O)N(C)C)CC(=O)N1C` [PP2345], the “HRAS/KRAS (ratio of KD value with respect to HRAS to KD value with respect to KRAS)” value in assay [1] was “A (a compound having 10 or more and less than 20 is denoted as A)”. Moreover, the “NRAS/KRAS (ratio of KD value with respect to NRAS to KD value with respect to KRAS)” value in assay [2] was “A (a compound having 10 or more and less than 20 is denoted as A)”.
Turning to `CCOC[C@H]1C(=O)N[C@@H]([C@@H](C)CC)C(=O)N(C)CC(=O)N(C)[C@H]2C/C=C\CCN(C2=O)[C@@H](CC2CCC(F)(F)CC2)C(=O)N(C)CC(=O)N[C@@H](CCc2ccc(C(F)(F)F)c(OC)c2)C(=O)N2C[C@H](OCC)C[C@H]2C(=O)N(C)C2(CCC2)C(=O)N(C)[C@@H](C(CC)CC)C(=O)N(C)[C@H](C(=O)N(C)C)CC(=O)N1C` [PP2347], the “HRAS/KRAS (ratio of KD value with respect to HRAS to KD value with respect to KRAS)” value in assay [1] was “A (a compound having 10 or more and less than 20 is denoted as A)”. In addition, the “NRAS/KRAS (ratio of KD value with respect to NRAS to KD value with respect to KRAS)” value in assay [2] is “A (a compound having 10 or more and less than 20 is denoted as A)”.
Take `CCC[C@H]1C(=O)N[C@@H]([C@@H](C)CC)C(=O)N(C)CC(=O)N(C)[C@H]2C/C=C\CCN(C2=O)[C@@H](CC2CCC(F)(F)CC2)C(=O)N(C)CC(=O)N[C@@H](CCc2ccc(C(F)(F)F)c(OC)c2)C(=O)N2C[C@H](OCC)C[C@H]2C(=O)N(C)C2(CCC2)C(=O)N(C)[C@@H](C2CCCC2)C(=O)N(C)[C@H](C(=O)N(C)C)CC(=O)N1C` [PP2348]: the “HRAS/KRAS (ratio of KD value with respect to HRAS to KD value with respect to KRAS)” value in assay [1] was “A (a compound having 10 or more and less than 20 is denoted as A)”. Moreover, the “NRAS/KRAS (ratio of KD value with respect to NRAS to KD value with respect to KRAS)” value in assay [2] is “A (a compound having 10 or more and less than 20 is denoted as A)”.
Regarding `CCC[C@H]1C(=O)N[C@@H]([C@@H](C)CC)C(=O)N(C2CC2)CC(=O)N(C)[C@H]2C/C=C\CCN(C2=O)[C@@H](CC2CCC(F)(F)CC2)C(=O)N(C)CC(=O)N[C@@H](CCc2ccc(C(F)(F)F)c(OC)c2)C(=O)N2C[C@H](OCC)C[C@H]2C(=O)N(C)C2(CCC2)C(=O)N(C)[C@@H](C(CC)CC)C(=O)N(C)[C@H](C(=O)N(C)C)CC(=O)N1C` [PP2349], the “HRAS/KRAS (ratio of KD value with respect to HRAS to KD value with respect to KRAS)” value in assay [1] was “A (a compound having 10 or more and less than 20 is denoted as A)”. Moreover, the “NRAS/KRAS (ratio of KD value with respect to NRAS to KD value with respect to KRAS)” value in assay [2] was “A (a compound having 10 or more and less than 20 is denoted as A)”.
As for `CCCOC[C@H]1C(=O)N[C@@H]([C@@H](C)CC)C(=O)N(C)CC(=O)N(C)[C@H]2C/C=C\CCN(C2=O)[C@@H](CC2CCC(F)(F)CC2)C(=O)N(C)CC(=O)N[C@@H](CCc2ccc(C(F)(F)F)c(OC)c2)C(=O)N2C[C@H](OCC)C[C@H]2C(=O)N(C)C2(CCC2)C(=O)N(C)[C@@H](C2CCCC2)C(=O)N(C)[C@H](C(=O)N(C)C)CC(=O)N1C` [PP2350], the “HRAS/KRAS (ratio of KD value with respect to HRAS to KD value with respect to KRAS)” value in assay [1] was “A (a compound having 10 or more and less than 20 is denoted as A)”. Also, in assay [2], the “NRAS/KRAS (ratio of KD value with respect to NRAS to KD value with respect to KRAS)” value was “A (a compound having 10 or more and less than 20 is denoted as A)”.
As for `CCOC[C@H]1C(=O)N[C@@H]([C@@H](C)CC)C(=O)N(C2CC2)CC(=O)N(C)[C@H]2C/C=C\CCN(C2=O)[C@@H](CC2CCC(F)(F)CC2)C(=O)N(C)CC(=O)N[C@@H](CCc2ccc(C(F)(F)F)c(OC)c2)C(=O)N2C[C@H](OCC)C[C@H]2C(=O)N(C)C2(CCC2)C(=O)N(C)[C@@H](C(CC)CC)C(=O)N(C)[C@H](C(=O)N(C)C)CC(=O)N1C` [PP2351], in assay [1], the “HRAS/KRAS (ratio of KD value with respect to HRAS to KD value with respect to KRAS)” value was “A (a compound having 10 or more and less than 20 is denoted as A)”. Further, in assay [2], the “NRAS/KRAS (ratio of KD value with respect to NRAS to KD value with respect to KRAS)” value is “A (a compound having 10 or more and less than 20 is denoted as A)”.
On to `CCC[C@H]1C(=O)N[C@@H]([C@@H](C)CC)C(=O)N(C2CC2)CC(=O)N(C)[C@H]2C/C=C\CCN(C2=O)[C@@H](CC2CCC(F)(F)CC2)C(=O)N(C)CC(=O)N[C@@H](CCc2ccc(C(F)(F)F)c(OC)c2)C(=O)N2C[C@H](OCC)C[C@H]2C(=O)N(C)C2(CCC2)C(=O)N(C)[C@@H](C2CCCC2)C(=O)N(C)[C@H](C(=O)N(C)C)CC(=O)N1C` [PP2352], for which the “HRAS/KRAS (ratio of KD value with respect to HRAS to KD value with respect to KRAS)” value in assay [1] is “A (a compound having 10 or more and less than 20 is denoted as A)”. In assay [2], the “NRAS/KRAS (ratio of KD value with respect to NRAS to KD value with respect to KRAS)” value was “A (a compound having 10 or more and less than 20 is denoted as A)”.
As to `CCC[C@H]1C(=O)N[C@@H]([C@@H](C)CC)C(=O)N2CCC[C@H]2C(=O)N(C)[C@H]2C/C=C\CCN(C2=O)[C@@H](CC2CCC(F)(F)CC2)C(=O)N(C)CC(=O)N[C@@H](CCc2ccc(C(F)(F)F)c(OC)c2)C(=O)N2C[C@H](OCC)C[C@H]2C(=O)N(C)C2(CCC2)C(=O)N(C)[C@@H](C(CC)CC)C(=O)N(C)[C@H](C(=O)N(C)C)CC(=O)N1C` [PP2353], the “HRAS/KRAS (ratio of KD value with respect to HRAS to KD value with respect to KRAS)” value in assay [1] was “A (a compound having 10 or more and less than 20 is denoted as A)”. For the same compound, the “NRAS/KRAS (ratio of KD value with respect to NRAS to KD value with respect to KRAS)” value in assay [2] is “A (a compound having 10 or more and less than 20 is denoted as A)”.
Consider `CCCOC[C@H]1C(=O)N[C@@H]([C@@H](C)CC)C(=O)N(C2CC2)CC(=O)N(C)[C@H]2C/C=C\CCN(C2=O)[C@@H](CC2CCC(F)(F)CC2)C(=O)N(C)CC(=O)N[C@@H](CCc2ccc(C(F)(F)F)c(OC)c2)C(=O)N2C[C@H](OCC)C[C@H]2C(=O)N(C)C2(CCC2)C(=O)N(C)[C@@H](C2CCCC2)C(=O)N(C)[C@H](C(=O)N(C)C)CC(=O)N1C` [PP2354], for which the “HRAS/KRAS (ratio of KD value with respect to HRAS to KD value with respect to KRAS)” value in assay [1] is “A (a compound having 10 or more and less than 20 is denoted as A)”. Also, the “NRAS/KRAS (ratio of KD value with respect to NRAS to KD value with respect to KRAS)” value in assay [2] is “A (a compound having 10 or more and less than 20 is denoted as A)”.
